Laboratory results from article PMC7284125, “Identification of annotated bioactive molecules that impair motility of the blood fluke Schistosoma mansoni” (International Journal for Parasitology: Drugs and Drug …, 2020).
Like-named read-outs stand apart in the source and are kept apart here.

How the values were obtained:
[1] = tested on: S. mansoni schistosomulae; assay: Motility assay on schistosomulae (pixel displacement, relative to DMSO control); type: cell-based, Schistosoma mansoni; settings: for activity at 1 µM: Schistosoma mansoni, read-out: Fractional motility; for activity at 1 µM / Fractional motility: schistosomulae; for motility in extended assay with reduced incubation times, in words: three-day old schistosomulae, incubation 1 h, 3 h, 6 h
Experimental: Puerto Rican strain Biomphalaria glabrata snails infected with S. mansoni were kindly provided by Dr. Fred Lewis (Biomedical Research Institute and BEI Resources, MD, USA). Schistosomulae were obtained by exposing six to eight weeks-old snails to continuous light for 2 h at 32 °C. The resulting suspension of cercaria was then mechanically transformed as described ([Lewis, 2001]) and cultured in Opti-MEM/antibiotics (Thermo Fisher Scientific, Waltham, MA) containing 100 μg/mL streptomycin and 100 units/ml penicillin supplemented with 5% fetal bovine serum (FBS; Thermo Fisher). Parasite cultures were incubated at 37 °C with 5% CO2 for at least 10 days with no apparent loss of viability. At this point, animals with internal dark granulations and with no observable body contraction/relaxation cycles were considered dead.
(§1) Schistosomulae (200/well) and adult parasites (unpaired worms) were maintained in 300 μL OPTI-MEM with 5% dialyzed FBS (without antibiotics) and exposed to compounds at 1 and 10 μM for 24 h. A kinetic assay consisting of 1, 3, 6 and 12 h incubation times was performed on selected hits by motility monitoring using a stereo microscope (SMZ1270, Nikon) for adults and an inverted microscope for schistosomulae (eclipse TE2000-U, Nikon) connected to a monochrome camera (DS-Qi2, Nikon) for image acquisition. Images were recorded at a rate of 10 frames/s for a period of 1 min and videos were analyzed using ImageJ software (version 1.41, NIH, USA). Parasite movement quantification and data analysis protocols were applied using the pixel displacement method ([Patocka et al., 2014]; [Rashid et al., 2015]) and compared to control parasites treated with DMSO. Parasites were then washed several times in Opti-MEM, 5% FBS and incubated up to an additional three days (schistosomulae) or five days (adult worms) at 37 °C, 5% CO2 and motility was recorded as described above.

S. mansoni adult worms = assay: Motility assay on adult parasites (pixel displacement, relative to DMSO control); type: cell-based, Schistosoma mansoni; settings: 10 μM; for Fractional motility: secondary screen; for motility phenotype in words: adults, long-term after washout
Experimental: Adult parasites were collected from 40 day-old female CD1 mice (Charles River) previously inoculated by the tail infection method ([Lewis, 2001]). Six weeks post-infection, mice were sacrificed, and adult worms extracted after perfusion of in the hepatic portal vein and mesenteric venules ([Lewis, 2001]). Animal procedures were reviewed and approved by the Facility Animal Care Committee of McGill University (Protocol No. 3346) and were conducted in accordance with the guidelines of the Canadian Council on Animal Care.
as §1

[2] = tested on: S. mansoni schistosomulae; assay: Phenotypic primary screen assay on schistosomulae (phenotype; viability by methylene blue dye exclusion); type: cell-based, Schistosoma mansoni; settings: three-day-old schistosomulae, 10 μM, 24 h; estimated 5 days post compound exposure
Experimental: Puerto Rican strain Biomphalaria glabrata snails infected with S. mansoni were kindly provided by Dr. Fred Lewis (Biomedical Research Institute and BEI Resources, MD, USA). Schistosomulae were obtained by exposing six to eight weeks-old snails to continuous light for 2 h at 32 °C. […] At this point, animals with internal dark granulations and with no observable body contraction/relaxation cycles were considered dead.
Schistosomulae were monitored under a stereo microscope (SMZ1270, Nikon). Phenotypic observations were made by analyzing schistosomulae, 24 h after drug addition to assess any immediate effect and five days post-compound exposure to observe long-term impacts on both the movement and overall body shape in comparison to control animals exposed to DMSO only.

[3] = tested on: S. mansoni schistosomulae; assay: as above; type: cell-based; settings: Schistosoma mansoni; three-day-old schistosomulae, 10 μM, 24 h; calculated 5 days post compound exposure; read-out: Viability (%)
[4] = 120 h, secondary screen, 24h exposure, read at D5, 1 µM
[5] = secondary screen, 24h exposure, read at D1, 1 µM
[6] = secondary screen, 24h exposure, read at D1, 10 µM
[7] = secondary screen, 24h exposure, read at D5, 10 µM

motility phenotype in words (S. mansoni adult worms)	Structure (SMILES)	activity at 1 µM [1, 4] [%]	activity at 1 µM [1, 5] [%]	Fractional motility [1, 6]	Fractional motility [1, 7]	Fractional motility (S. mansoni adult worms; D1, Female adult worms)	Fractional motility (S. mansoni adult worms; D1, Male adult worms)	Fractional motility (S. mansoni adult worms; D5, Female adult worms)	Fractional motility (S. mansoni adult worms; D5, Male adult worms)	Phenotype [2]	viability at 10 µM [3] [%]	Fractional motility ([1]; 1h exposure, read at D1, 10 µM)	Fractional motility ([1]; 1h exposure, read at D5, 10 µM)	Fractional motility ([1]; 3h exposure, read at D1, 10 µM)	Fractional motility ([1]; 3h exposure, read at D5, 10 µM)	Fractional motility ([1]; 6h exposure, read at D1, 10 µM)	motility in extended assay with reduced incubation times, in words [1]	Fractional motility ([1]; 6h exposure, read at D5, 10 µM)
	Cc1ccc(C(=O)N(CCCN)[C@@H](c2nc3cc(Cl)ccc3c(=O)n2Cc2ccccc2)C(C)C)cc1 [Ispinesib]	125	24	-0.92	-0.39	3.19	2.22	-0.34	-0.33	big, granulated	96							
	CCCCCCCCOc1ccccc1C(=O)Nc1ccc(C(=O)OCC[N+](C)(CC)CC)cc1 [Otilonium]	31	-72	0.56	-0.13	0.10	0.16	-0.67	-0.65	blebbing	98.5							
	C[C@@H](NCCCc1cccc(C(F)(F)F)c1)c1cccc2ccccc12 [AMG-073]	-32	-28	-0.83	-1.00	0.11	-0.24	-0.43	-0.27	big, granulated, blebbing	55	7.02	0.35	12.64	0.72	6.39	did not exhibit a significant change before the 24 hr incubation cut-off	
Significant hypomotility	CNCc1ccc(-c2cc(-c3nc(-c4ccc(S(=O)(=O)C(C)C)cc4)cnc3N)on2)cc1 [VE-822]	-14	-37	-0.68	-0.83	-0.46	-0.30	-0.67	-0.66	dark, granulated	11.5	-0.26	-0.63	-0.72	-0.69	3.57	did not exhibit a significant change before the 24 hr incubation cut-off	0.02
Significant hypomotility	Cc1cc(Nc2ncc(Cl)c(Nc3ccccc3S(=O)(=O)C(C)C)n2)c(OC(C)C)cc1C1CCNCC1 [LDK378]	120	7	-0.83	-0.96	-0.38	-0.0381	-0.63	-0.31	dark, granulated	0							
	CCOC(=O)C1=C(C)NC(C)=C(C(=O)OCC)C1c1ccccc1/C=C/C(=O)OC(C)(C)C [Lacidipine]	-11	99	3.79	0.28	-0.73	-0.50	-0.82	-0.53	granulated	99							
	NCC(=O)Nc1ccc(-n2nc(C(F)(F)F)cc2-c2ccc3c(ccc4ccccc43)c2)cc1 [OSU-03012]	26	26	-1.00	-0.72	0.79	1.37	-0.15	0.62	big, granulated	1							
